From US6524805B1 (priority 1997, dated 2003)
Where “and” joins values, the source holds several entries; their conditions need not be identical. Equal values may be shown once. Read-outs that look alike come from different tables or passages of the source.

Assays:
mu3 opiate receptor [1] = molecular target: T1, mu3 opiate receptor (Homo sapiens, UniProt P35372); type: cell-based
T1 construct: aliquots of membrane suspensions from human granulocytes and lung non-small cell carcinoma; from tissue; host or cells: human granulocytes, human monocytes, normal lung, non-small cell lung carcinoma tissue, vascular tissue

mu3 opiate receptor [2] = molecular target: T1, mu3 opiate receptor; type: cell-based; remark: listed apart in the source
Procedure: The system was calibrated daily using different concentrations of the nitrosothiol donor S-nitroso-N-acetyl-DL-penicillamine (SNAP; Sigma, St. Louis, Mo.) to generate a standard curve. The concentration of NO gas in solution was measured in real-time with the DUO 18 computer data acquisition system (World Precision Instruments). Each experiment was simultaneously performed with a control (vehicle alone) to exclude experimental drift in NO release unrelated to the administration of compounds.

mu3 opiate receptor [3] = molecular target: T1, mu3 opiate receptor; experiment: biochemical; type: binding
Procedure: Binding was studied in human granulocytes, normal lung, and non-small cell lung carcinoma tissue. The separate materials were washed and homogenized in 50 volumes of 0.32 M sucrose (pH 7.4) at 4° C. […] Briefly, aliquots of membrane suspensions from human granulocytes and lung non-small cell carcinoma (less 9% lymphocyte infiltrate) were incubated with non-radioactive compounds at six concentrations for 10 minutes at 22° C. and then with 40 nM of ^3H-dihydromorphine ([^3H]-DHM) for 60 minutes at 4° C. One hundred percent binding is defined as bound [^3H]-DHM in the presence of 10 μM dextrophan minus bound [^3H]-DHM in the presence of 10 μM levorphanol. The IC50 values are defined as the concentration of drug that elicits half-maximal inhibition of specific binding. The mean SEM for three experiments is given.

[4] = tested on: estrogen surface receptor (ESR1); experiment: Intracellular calcium (fura-2) in human arterial endothelial cells, estrogen compounds; type: cell-based; settings: for effect of prior exposure on 17β-estradiol-induced [Ca^2+]i increase: tamoxifen 1 nM, ICI 182, 780 1 μM
Procedure: Human arterial endothelial cells were purchased from Cell Systems (Eugene, Oregon) and grown at 37° C., 5% CO2 in chamber slides (Nunc Int.) with CS-C medium (Cell Systems) supplemented with 10% fetal calf serum and endothelial growth factor. Intracellular calcium levels were measured by dual emission microfluorimetry using the fluorescent dye fura-2/AM. Cells were loaded with the fluorescent ion indicator as follows. […] Cells were washed twice with PBS and then test drugs were added. […] Experiments were carried out at room temperature in PBS without calcium/magnesium. Receptor antagonists, when used, were administered 2 minutes prior to the respective agonist.
Intracellular calcium levels in human arterial endothelial cells were monitored as described herein for the mu3 studies.

[5] = tested on: estrogen surface receptor (ESR1); experiment: NO release from ITA fragments and cultured arterial endothelial cells, estrogen compounds; type: cell-based, human
Description: Internal thoracic artery (ITA) segments were obtained from patients undergoing elective coronary artery bypass grafting (CABG) for atherosclerotic coronary artery disease. Patients with chronic illnesses, such as diabetes or cancer as well as acute processes (e.g., known infections, trauma), were excluded.
Prior to measuring NO release, the cells were exposed to a concentration gradient of the various ligands.

T1 sequence (P35372 1-314 isoform P35372-14): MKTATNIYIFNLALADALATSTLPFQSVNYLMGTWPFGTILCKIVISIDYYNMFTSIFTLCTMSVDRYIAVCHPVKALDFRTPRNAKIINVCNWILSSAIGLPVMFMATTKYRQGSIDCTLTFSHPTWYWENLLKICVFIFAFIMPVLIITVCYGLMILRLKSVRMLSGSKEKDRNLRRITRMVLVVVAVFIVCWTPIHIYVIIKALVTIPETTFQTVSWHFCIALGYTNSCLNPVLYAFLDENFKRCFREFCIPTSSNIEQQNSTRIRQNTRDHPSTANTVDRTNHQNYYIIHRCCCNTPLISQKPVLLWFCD

CC(C)C[C@@H](NC(=O)[C@H](Cc1ccccc1)NC(=O)CNC(=O)[C@@H](C)NC(=O)[C@@H](N)Cc1ccc(O)cc1)C(=O)O [DADLE, (D-Ala^2, Leu^5)-enkephalin]
stimulation of intracellular calcium level increases in endothelial cells (mu3 opiate receptor [1]): did not stimulate

CSCC[C@H](NC(=O)[C@H](Cc1ccccc1)NC(=O)CNC(=O)[C@@H](C)NC(=O)[C@@H](N)Cc1ccc(O)cc1)C(N)=O [DAMA, (D-Ala^2, Met^5)-enkephalinamide]
NO release at 4 minutes post morphine exposure (mu3 opiate receptor [2]): 5.2 ± 1.4 nM
effect of pre-treatment on morphine-induced NO release (mu3 opiate receptor [2]; 1 nM peptide, vascular tissue, human monocytes, human granulocytes): prevented
inhibition of morphine-induced NO release (mu3 opiate receptor [2]; 1 nM peptide, vascular tissue, 4 to 10 minute time points): significantly (P<0.05) inhibited
NO release at 4 minutes (mu3 opiate receptor [2]; vascular tissue, DAMA alone 1 nM): 0.0 nM
IC50 (mu3 opiate receptor [3]; GRANULOCYTES membranes, 40 nM [3H]-DHM, mean ± SEM, three experiments, read-out: Displacement of [3H]-DHM IC50): > 1000 nM
IC50 (mu3 opiate receptor [3]; LUNG CARCINOMA (non-small cell) membranes, 40 nM [3H]-DHM, mean ± SEM, read-out: Displacement of [3H]-DHM IC50): > 1000 nM
IC50 (mu3 opiate receptor [3]; NORMAL LUNG membranes, 40 nM [3H]-DHM, mean ± SEM, read-out: Displacement of [3H]-DHM IC50): > 1000 nM
stimulation of intracellular calcium level increases in endothelial cells (mu3 opiate receptor [1]; concentration range 1 pM to 1 μM): did not stimulate

Oc1ccc2c3c1O[C@H]1c4[nH]c5ccccc5c4C[C@@]4(O)[C@@H](C2)N(CC2CC2)CC[C@]314 [Naltrindole]
NO release (mu3 opiate receptor [2]): 12.0 ± 3.4 nM
effect on the inhibition of morphine-induced NO release by DAMA (mu3 opiate receptor [2]): blocked

C[C@]12CC[C@@H]3c4ccc(O)cc4CC[C@H]3[C@@H]1CC[C@@H]2O [17β-estradiol]
[Ca^2+]i after leaching of intracellular calcium stores ([4]; 17β-estradiol 1 nM, 3 hour Ca-free incubation, medium changed six times): 3.8±0.6
EC50 ([4]; stated with the [Ca^2+]i results): 0.5 nM
NO release at 10 pM [5]: failed to stimulate a significant increase
NO release in Ca-leached endothelial cells [5]: 1.8 ± 0.6 nM
NO release peak value [5]: 16.1 nM
concentration of maximal effect on NO release [5]: 1 nM
peak value of NO release (non-leached comparison) [5]: 16.0 ± 2.7 nM
response of ITA with endothelial lining scraped off [5]: non-responsive
time period of NO release [5]: 10 min
time to peak of NO release [5]: ≤ 2 min

CC/C(=C(\c1ccccc1)c1ccc(OCCN(C)C)cc1)c1ccccc1 [Tamoxifen]
effect of prior exposure on 17β-estradiol-induced [Ca^2+]i increase [4]: blocked
effect of pre-treatment on 17β-estradiol-induced NO release [5]: significantly diminished
effect of pre-treatment on E2-BSA-induced NO release [5]: blocked

CN1CC[C@]23c4c5ccc(O)c4O[C@H]2[C@@H](O)CC[C@H]3[C@H]1C5 [Dihydromorphine]
IC50 (mu3 opiate receptor [3]; Displacement of [3H]-DHM IC50): 33 nM and 27 nM and 28.5 nM

COC(=O)[C@@H](N)CCCNC(=N)N[N+](=O)[O-] [L-NAME, N omega-nitro-L-arginine methyl ester]
effect of pretreatment on morphine-induced NO release (mu3 opiate receptor [2]; human granulocytes): inhibited

C[C@]12CC[C@@H]3c4ccc(O)cc4C[C@@H](CCCCCCCCC[S+]([O-])CCCC(F)(F)C(F)(F)F)[C@H]3[C@@H]1CC[C@@H]2O (stereo partly shown) [ICI 182, 780]
effect of prior exposure on 17β-estradiol-induced [Ca^2+]i increase [4]: not
effect of pre-treatment on 17β-estradiol-induced NO release ([5]; ITA fragments and cultured arterial endothelial cells, tamoxifen 1 nM, ICI 182,780 1 nM, L-NAME 100 μM, 5 minutes before agonist): failed to inhibit
effect of pre-treatment on E2-BSA-induced NO release ([5]; ITA fragments and cultured arterial endothelial cells, tamoxifen, ICI 182,780 1 nM, L-NAME 100 μM, 5 minutes before agonist): failed to inhibit

C[C@@H](NC(=O)[C@@H](N)Cc1ccc(O)cc1)C(=O)NCC(=O)N(C)[C@@H](Cc1ccccc1)C(=O)NCCO [DAMGO, (Tyr-D-Ala^2, Gly-N-Me-Phe^4, Gly(ol)^5)-enkephalin]
effect of pre-treatment on morphine-induced NO release (mu3 opiate receptor [2]): prevented
effect on NO release (compound alone) (mu3 opiate receptor [2]): no effect
inhibition of morphine-induced NO release (mu3 opiate receptor [2]): significantly (P<0.05) inhibited
stimulation of endothelial [Ca^2+]i increases (mu3 opiate receptor [1]): did not stimulate

C[C@]12CC[C@@H]3c4ccc(O)cc4CC[C@H]3[C@@H]1CC[C@H]2O [17α-estradiol]
stimulation of NO release [5]: did not stimulate
